Results taken from the supplement of paper PMC10307832.

Columns and labels:
Assay in all cases: relative viability (nuclei count vs DMSO), 5 days (fraction); higher = more cells survive
NCI-H460 = tested on: NCI-H460
Summary of the method: (§1)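 Cells from lung cancer lines were seeded into 1536-well plates and, one day later, dosed by pin tool. Treatments were either a single drug or a fixed dose of an anchor drug with five library-drug doses (not always all listed) in √10 steps. After 5 days, nuclei were stained in a one-step fixation (final 0.05% Triton X-100, 1% formaldehyde, 1 ug/ml Hoechst) and counted on 4× images, and relative viability is the treated-to-vehicle nuclei ratio, as the median of duplicate plates.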

LC-2-ad = tested on: LC-2-ad
Summary of the method: as §1

HCC-15 = tested on: HCC-15
Summary of the method: as §1

NCI-H650 = tested on: NCI-H650
Summary of the method: as §1

NCI-H661 = tested on: NCI-H661
Summary of the method: as §1

NCI-H1651 = tested on: NCI-H1651
Summary of the method: as §1

A-427 = tested on: A-427
Summary of the method: as §1

PC-3 [JPC-3] = tested on: PC-3 [JPC-3]
Summary of the method: as §1

NCI-H596 = tested on: NCI-H596
Summary of the method: as §1

201T = tested on: 201T
Summary of the method: as §1

NCI-H441 = tested on: NCI-H441
Summary of the method: as §1

NCI-H2023 = tested on: NCI-H2023
Summary of the method: as §1

NCI-H520 = tested on: NCI-H520
Summary of the method: as §1

NCI-H2087 = tested on: NCI-H2087
Summary of the method: as §1

BEN = tested on: BEN
Summary of the method: as §1

NCI-H1915 = tested on: NCI-H1915
Summary of the method: as §1

NCI-H1944 = tested on: NCI-H1944
Summary of the method: as §1

ABC-1 = tested on: ABC-1
Summary of the method: as §1

LCLC-97TM1 = tested on: LCLC-97TM1
Summary of the method: as §1

H3255 = tested on: H3255
Summary of the method: as §1

CAL-12T = tested on: CAL-12T
Summary of the method: as §1

NCI-H727 = tested on: NCI-H727
Summary of the method: as §1

NCI-H1650 = tested on: NCI-H1650
Summary of the method: as §1

C[C@@H]1CN(CC(=O)Nc2ccc3c(c2)Cc2cccc(-c4cc(=O)cc(N5CCOCC5)o4)c2S3)C[C@H](C)O1 + Cc1cc(Nc2cc(N3CCN(C)CC3)nc(Sc3ccc(NC(=O)C4CC4)cc3)n2)n[nH]1 [Tozasertib] (partner 0.1 µM)
relative viability (NCI-H460; first compound 0.04 µM): 0.393 | relative viability (NCI-H460; first compound 0.1265 µM): 0.397 | relative viability (NCI-H460; first compound 0.4 µM): 0.485 | relative viability (NCI-H460; first compound 4 µM): 0.0949 | relative viability (LC-2-ad; first compound 0.04 µM): 0.373 | relative viability (LC-2-ad; first compound 0.1265 µM): 0.454 | relative viability (LC-2-ad; first compound 0.4 µM): 0.467 | relative viability (LC-2-ad; first compound 4 µM): 0.44 | relative viability (HCC-15; first compound 0.04 µM): 0.334 | relative viability (HCC-15; first compound 0.1265 µM): 0.372 | relative viability (HCC-15; first compound 0.4 µM): 0.385 | relative viability (HCC-15; first compound 4 µM): 0.151 | relative viability (NCI-H650; first compound 0.04 µM): 0.655 | relative viability (NCI-H650; first compound 0.1265 µM): 0.811 | relative viability (NCI-H650; first compound 0.4 µM): 0.698 | relative viability (NCI-H650; first compound 4 µM): 0.581 | relative viability (NCI-H661; first compound 0.04 µM): 0.345 | relative viability (NCI-H661; first compound 0.1265 µM): 0.366 | relative viability (NCI-H661; first compound 0.4 µM): 0.355 | relative viability (NCI-H661; first compound 4 µM): 0.366 | relative viability (NCI-H1651; first compound 0.04 µM): 0.683 | relative viability (NCI-H1651; first compound 0.1265 µM): 0.609 | relative viability (NCI-H1651; first compound 0.4 µM): 0.602 | relative viability (NCI-H1651; first compound 4 µM): 0.535 | relative viability (A-427; first compound 0.04 µM): 0.176 | relative viability (A-427; first compound 0.1265 µM): 0.214 | relative viability (A-427; first compound 0.4 µM): 0.214 | relative viability (A-427; first compound 4 µM): 0.205 | relative viability (PC-3 [JPC-3]; first compound 0.04 µM): 0.883 | relative viability (PC-3 [JPC-3]; first compound 0.1265 µM): 0.862 | relative viability (PC-3 [JPC-3]; first compound 0.4 µM): 0.871 | relative viability (PC-3 [JPC-3]; first compound 4 µM): 0.74 | relative viability (NCI-H596; first compound 0.04 µM): 0.934 | relative viability (NCI-H596; first compound 0.1265 µM): 1.13 | relative viability (NCI-H596; first compound 0.4 µM): 0.759 | relative viability (NCI-H596; first compound 4 µM): 0.762 | relative viability (201T; first compound 0.04 µM): 0.93 | relative viability (201T; first compound 0.1265 µM): 0.882 | relative viability (201T; first compound 0.4 µM): 0.909 | relative viability (201T; first compound 4 µM): 0.922 | relative viability (NCI-H441; first compound 0.04 µM): 0.601 | relative viability (NCI-H441; first compound 0.1265 µM): 0.678 | relative viability (NCI-H441; first compound 0.4 µM): 0.528 | relative viability (NCI-H441; first compound 4 µM): 0.49 | relative viability (NCI-H2023; first compound 0.04 µM): 0.406 | relative viability (NCI-H2023; first compound 0.1265 µM): 0.285 | relative viability (NCI-H2023; first compound 0.4 µM): 0.238 | relative viability (NCI-H2023; first compound 4 µM): 0.175 | relative viability (NCI-H520; first compound 0.04 µM): 0.474 | relative viability (NCI-H520; first compound 0.1265 µM): 0.454 | relative viability (NCI-H520; first compound 0.4 µM): 0.356 | relative viability (NCI-H520; first compound 4 µM): 0.448 | relative viability (NCI-H2087; first compound 0.04 µM): 0.309 | relative viability (NCI-H2087; first compound 0.1265 µM): 0.249 | relative viability (NCI-H2087; first compound 0.4 µM): 0.333 | relative viability (NCI-H2087; first compound 4 µM): 0.228 | relative viability (BEN; first compound 0.04 µM): 0.449 | relative viability (BEN; first compound 0.1265 µM): 0.49 | relative viability (BEN; first compound 0.4 µM): 0.447 | relative viability (BEN; first compound 4 µM): 0.478 | relative viability (NCI-H1915; first compound 0.04 µM): 0.364 | relative viability (NCI-H1915; first compound 0.1265 µM): 0.422 | relative viability (NCI-H1915; first compound 0.4 µM): 0.399 | relative viability (NCI-H1915; first compound 4 µM): 0.314 | relative viability (NCI-H1944; first compound 0.04 µM): 0.273 | relative viability (NCI-H1944; first compound 0.1265 µM): 0.255 | relative viability (NCI-H1944; first compound 0.4 µM): 0.263 | relative viability (NCI-H1944; first compound 4 µM): 0.23 | relative viability (ABC-1; first compound 0.1265 µM): 0.159 | relative viability (ABC-1; first compound 0.4 µM): 0.184 | relative viability (ABC-1; first compound 4 µM): 0.16 | relative viability (LCLC-97TM1; first compound 0.04 µM): 0.27 | relative viability (LCLC-97TM1; first compound 0.1265 µM): 0.226 | relative viability (LCLC-97TM1; first compound 0.4 µM): 0.214 | relative viability (LCLC-97TM1; first compound 4 µM): 0.207 | relative viability (H3255; first compound 0.04 µM): 0.694 | relative viability (H3255; first compound 0.1265 µM): 0.606 | relative viability (H3255; first compound 0.4 µM): 0.625 | relative viability (H3255; first compound 4 µM): 0.492 | relative viability (CAL-12T; first compound 0.04 µM): 0.306 | relative viability (CAL-12T; first compound 0.1265 µM): 0.366 | relative viability (CAL-12T; first compound 0.4 µM): 0.296 | relative viability (CAL-12T; first compound 4 µM): 0.217 | relative viability (NCI-H727; first compound 0.04 µM): 0.797 | relative viability (NCI-H727; first compound 0.1265 µM): 0.736 | relative viability (NCI-H727; first compound 0.4 µM): 0.572 | relative viability (NCI-H727; first compound 4 µM): 0.57 | relative viability (NCI-H1650; first compound 0.04 µM): 0.433 | relative viability (NCI-H1650; first compound 0.1265 µM): 0.375 | relative viability (NCI-H1650; first compound 0.4 µM): 0.344 | relative viability (NCI-H1650; first compound 4 µM): 0.239
